Data reported in ChEMBL document CHEMBL5653619, “A potent, selective and cell-active allosteric inhibitor of protein arginine methyltransferase 3 (PRMT3)” (Angew Chem Int Ed Engl, 2015).

Key:
MDA-MB-231 [1] = test: Cytotoxicity against human MDA-MB-231 cells assessed as reduction in cell viability incubated for 24 hrs by alamar blue assay; type: toxicity, cell-based; details: mda-mb-231, 24 h
[2] = Drug concentration in CD-1 mouse plasma at 30 mg/kg, ip measured at 6 hrs post injection; type: ADME, organism-based
MCF7 [3] = test: Cytotoxicity against human MCF7 cells assessed as reduction in cell viability at 50 to 100 uM incubated for 72 hrs by alamar blue assay; type: toxicity, cell-based; details: mcf7, 72 h, dose 50-100 µM
MDA-MB-231 [4] = test: Cytotoxicity against human MDA-MB-231 cells assessed as reduction in cell viability at 50 to 100 uM incubated for 72 hrs by alamar blue assay; type: toxicity, cell-based; details: mda-mb-231, 72 h, dose 50-100 µM
MCF7 [5] = test: Cytotoxicity against human MCF7 cells assessed as reduction in cell viability incubated for 24 hrs by alamar blue assay; type: toxicity, cell-based; details: mcf7, 24 h
U2OS [6] = test: Cytotoxicity against human U2OS cells assessed as reduction in cell viability at 50 to 100 uM incubated for 72 hrs by alamar blue assay; type: toxicity, cell-based; details: dose 50-100 µM
HEK293 [7] = test: Cytotoxicity against HEK293 cells assessed as reduction in cell viability at 50 to 100 uM incubated for 72 hrs by alamar blue assay; type: toxicity, cell-based; details: human, hek293, 72 h, dose 50-100 µM
LNCaP [8] = test: Cytotoxicity against human LNCaP cells assessed as reduction in cell viability incubated for 24 hrs by alamar blue assay; type: toxicity, cell-based
[9] = Half life in CD-1 mouse at 30 mg/kg, ip measured for 6 hrs; type: ADME, organism-based; details: in vivo
[10] = Toxicity in CD-1 mouse assessed as drug tolerance at 30 mg/kg, ip measured for 6 hrs; type: organism-based; details: in vivo
HEK293 [11] = test: Cytotoxicity against HEK293 cells assessed as reduction in cell viability incubated for 24 hrs by alamar blue assay; type: toxicity, cell-based; details: human, hek293, 24 h
LNCaP [12] = test: Cytotoxicity against human LNCaP cells assessed as reduction in cell viability at 50 to 100 uM incubated for 72 hrs by alamar blue assay; type: toxicity, cell-based; details: dose 50-100 µM
[13] = biological target: KV channel (voltage-gated potassium channel family) (Homo sapiens, UniProt O43525+O43526+O95259+P16389+P17658+P22001+P22459+P22460+P48547+P51787+P56696+Q03721+Q09470+Q12809+Q14003+Q14721+Q16322+Q6PIU1+Q8NCM2+Q8TAE7+Q8TDN1+Q8TDN2+Q92953+Q96KK3+Q96L42+Q96PR1+Q96RP8+Q9BQ31+Q9H252+Q9H3M0+Q9NR82+Q9NS40+Q9NSA2+Q9NZV8+Q9UIX4+Q9UJ96+Q9UK17+Q9ULD8+Q9ULS6+Q9UQ05); test: Inhibition of KV channel (unknown origin) at 10 uM by antagonist ligand based assay relative to control; type: protein assay
[14] = biological target: T1, 5-hydroxytryptamine receptor 2B (Homo sapiens, UniProt P41595); details: dose 32000.0 nM
T1 sequence (P41595 whole entry): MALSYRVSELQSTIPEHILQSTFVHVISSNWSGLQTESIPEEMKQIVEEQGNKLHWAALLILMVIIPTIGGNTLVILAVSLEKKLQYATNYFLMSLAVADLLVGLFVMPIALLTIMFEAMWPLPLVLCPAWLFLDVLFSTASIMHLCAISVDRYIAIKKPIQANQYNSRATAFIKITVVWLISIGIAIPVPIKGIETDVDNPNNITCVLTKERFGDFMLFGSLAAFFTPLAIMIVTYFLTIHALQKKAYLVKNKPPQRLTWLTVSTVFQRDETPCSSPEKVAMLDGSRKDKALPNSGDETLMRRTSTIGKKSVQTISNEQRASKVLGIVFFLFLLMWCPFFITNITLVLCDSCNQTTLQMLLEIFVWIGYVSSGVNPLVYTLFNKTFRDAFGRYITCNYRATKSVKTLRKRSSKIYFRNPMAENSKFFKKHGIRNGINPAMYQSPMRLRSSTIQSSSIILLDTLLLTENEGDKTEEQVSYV
Description: Inhibition of [3H]LSD binding to 5-HT2B receptor (unknown origin) assessed as maximum inhibition at 32000 nM relative to control

HFF [15] = test: Cytotoxicity against HFF cells assessed as reduction in cell viability at 50 to 100 uM incubated for 72 hrs by alamar blue assay; type: toxicity, cell-based; details: human, dose 50-100 µM
U2OS [16] = test: Cytotoxicity against human U2OS cells assessed as reduction in cell viability incubated for 24 hrs by alamar blue assay; type: toxicity, cell-based
HFF [17] = test: Cytotoxicity against HFF cells assessed as reduction in cell viability incubated for 24 hrs by alamar blue assay; type: toxicity, cell-based; details: human
[18] = biological target: T1, 5-hydroxytryptamine receptor 2B; test: Inhibition of [3H]LSD binding to 5-HT2B receptor (unknown origin)

| SMILES | Activity (MDA-MB-231 [1]) | concentration at 6 h [2] | Activity (MCF7 [3]) | Activity (MDA-MB-231 [4]) | Activity (MCF7 [5]) | Activity (U2OS [6]) | Activity (HEK293 [7]) | Activity (LNCaP [8]) | half-life [9] | Activity [10] | Activity (HEK293 [11]) | Activity (LNCaP [12]) | inhibition at 10 µM [13] | Imax [14] | Activity (HFF [15]) | Activity (U2OS [16]) | Activity (HFF [17]) | Ki [18] |
| --- | --- | --- | --- | --- | --- | --- | --- | --- | --- | --- | --- | --- | --- | --- | --- | --- | --- | --- |
| O=C(NCC(=O)N1CCCC1)Nc1ccc2cnccc2c1 | Non-Toxic | 208 nM | Toxic | Toxic | Non-Toxic | Toxic | Toxic | Non-Toxic | ~1 h | Non-Toxic | Non-Toxic | Toxic | -12% | 50% | Toxic | Non-Toxic | Non-Toxic | > 15000 nM |
| Cn1ccc2cc3c(cc21)CCN3C(=O)Nc1cccnc1 | – | – | – | – | – | – | – | – | – | – | – | – | – | – | – | – | – | 18.5 nM |
